Measurements reported in patent US20240238268A1, “TREATMENTS AND METHODS FOR TREATING ALZHEIMER'S DISEASE” (Board of Supervisors of Louisiana State University and …, priority 2021, published 2024).

Columns and labels:
Assay type in all cases: in vivo, mouse
GFAP = GFAP protein level in brain, capillary-based immunoassay; conditions: aged 3xTg-AD female mice; TP-064 30 mg/kg, 7 days, IP or PRMT4-AAV
Experimental: Leukocytes velocity measurements were performed by linescans (512 lines/sec). *p<0.05 compared to aged 3xTg-AD male or C57 female evaluated by unpaired t-test. FIGS. 18A and 18B are capillary-based immunoassay and associated graphs showing PRMT4 inhibitor (TP-064) or AAV knockdown of PRMT4 reduced GFAP levels in aged 3xTg-AD female mice. Glial fibrillary acidic protein (GFAP, 55 kDa) was increased in aged 3xTg-AD female mice v. C57, which indicates neuroinflammation, but reversed with TP-064 (30 mg/kg, 7 days, IP) or PRMT4-AAV treatment in cortex, shown in FIG. 18A, and hippocampus, shown in FIG. 18B. Protein level was measured by capillary-based immunoassay and normalized to total protein. *p<0.05 as compared to C57, #p<0.05 v. 3xTg-AD evaluated by one-way ANOVA with Tukey's post-hoc analyses.
Capillary-phoresis immunoassay via ProteinSimple®: Quantification of all protein targets was achieved using Simple Western analysis in a Jess™ apparatus per the manufacturer's protocol (ProteinSimple, Bio-techne, Minneapolis, MN). […] Following homogenization and centrifugation (10,000×g, 5 min, 4° C.), protein concentration was determined in tissue protein supernatant samples using DC Protein Assay (Cat. No. 5000112, Bio-Rad Laboratories, Hercules, California) according to manufacturer instructions. […]

E-Cadherin = E-Cadherin level, protein chip assay; conditions: aged 3xTg-AD female mice; cortex and hippocampus; 30 mg/kg, 7 days, IP
Experimental: FIGS. 19A-19F are six graphs showing PRMT4 inhibitor (TP-064) reduced ICAM-1, VCAM-1 and enhanced E-Cadherin protein levels in aged female 3xTg-AD mice. In FIGS. 19A-19D, aged 3xTg-AD female mice v. […] Adhesion molecules were assessed via protein chip assay in the cortex and hippocampus. * p<0.05 evaluated by one-way ANOVA with Tukey's post-hoc analyses.

[1] = system: phosphorylated tau (pTau); assay: Phosphorylated tau level in brain, capillary-phoresis; conditions: treated 3xTg mice; controls = 100%
Description: Capillary-phoresis immunoassay via ProteinSimple®: Quantification of all protein targets was achieved using Simple Western analysis in a Jess™ apparatus per the manufacturer's protocol (ProteinSimple, Bio-techne, Minneapolis, MN). Protein was extracted from dissected tissue in an extraction buffer consisting of T-PER® Tissue Protein Extraction Reagent (Cat. No. 78510, Thermo Fischer Scientific, Waltham, MA) and Halt™ Protease Inhibitor Cocktail (Cat. No. 87785, Thermo Fischer Scientific, Waltham, MA). Following homogenization and centrifugation (10,000×g, 5 min, 4° C.), protein concentration was determined in tissue protein supernatant samples using DC Protein Assay (Cat. No. 5000112, Bio-Rad Laboratories, Hercules, California) according to manufacturer instructions. […] Antibody diluent (ProteinSimple, Bio-techne, Minneapolis, MN) was used for all antibody dilutions as follows: PRMT4 (1:50, RRID: AB_2068436), PRMT6 (1:100, Cell Signaling Technology cat. 14641), eNOS (1:200, RRID: AB_10850618), nNOS (1:100, RRID: AB_2152488), iNOS (1:100, RRID: AB_10000625), DDAH2 (1:50, RRID: AB_2640442) Antibodies were detected using HRP-conjugated secondary anti-rabbit, and -mouse. Relative protein levels were calculated by measuring the area under the peak of a chemiluminescent chromatogram and normalized to total capillary chemiluminescence for a given sample. […]

## CNCCN1CCC(c2cc(CN(C)C(=O)c3cccc(Oc4ccccc4)c3)ccn2)CC1 [TP-064, N-Methyl-N-((2-(1-(2-(methylamino)ethyl)piperidin-4-yl)pyridin-4-yl)methyl)-3-phenoxybenzamide]
GFAP
  GFAP level in cortex: reduced
  GFAP level in hippocampus: reduced
E-Cadherin
  E-Cadherin level: elevated
[1]
  pTau level in cortex: 234%±8.33
  pTau level in hippocampus: 307%±31.4
